Assay results published in patent publication US20160311795A1, “PYRIMIDINE DIAMINE DERIVATIVES AS INHIBITORS OF CYTOSOLIC HSP90” (CALASIA PHARMACEUTICALS, INC., priority 2012, published 2016).
Like-named read-outs stand apart in the source and are kept apart here.

What was measured:
human full length Hsp90 [1] = molecular target: T1, human full length Hsp90 (Homo sapiens, UniProt P07900); experiment: Determination of the Kd value of FITC-labeled geldanamycin for Hsp90 (fluorescence polarization); type: binding; details: with or without 50 nM Hsp90
T1 construct: amino acid residues 1 to 732 of human Hsp90 (GenBank: BC121062.2); made in house; host or cells: E. coli BL21DE3 (pET15b)
Description: Eighty five micro liters (μl) of a binding assay buffer (20 mM HEPES, pH 7.5, 50 mM KCl, 5 mM MgCl2, 20 mM sodium molybdate, 0.01% NP-40, 2 mM DTT, and 0.1 mg/mL BSA) were added to a 96 well black plate placed on ice. DMSO (3 μl) was added to the wells, followed by the addition of either 10 μl human full length HSP90 (50 nM final concentration) diluted in the binding assay buffer or 10 μl of the buffer alone. The plates were incubated at 4° C. on a plate shaker for 24 hours. Two μl of 50× GA-FITC titrate within a final range of 160 nM to 0.3125 nM in DMSO were added to all wells, followed by incubation at ambient temperature for 1 h with agitation. Fluorescence polarization readings were taken at excitation and emission wavelengths of 480 and 500 nm respectively. Measurements were performed in duplicate. Specific binding was calculated by subtracting polarization values in the presence of
Hsp90 from those in the absence of Hsp90. GA-FITC Kd values were calculated using Prism software (GraphPad Software, Inc., San Diego, Calif.).
A 10 point concentration response curve for binding of GM-FITC to Hsp90 was obtained. The concentration of GM-FITC used ranged from 160 nM to 0.3125 nM, which produced a saturable concentration response curve. […] The value of binding maximum (Bmax) was determined to be 188 nM.

human full length Hsp90 [2] = molecular target: T1, human full length Hsp90; experiment: Fluorescence polarization Hsp90 competitive binding assay (GM-FITC displacement); details: for inhibition at 10 µM: compound at 10 μM, read-out: Biochemical Potency % Inhibition at 10 μM
Description: Hsp90 binding assays was performed generally according to the procedure described in J. Biomol. […] Hsp90 inhibitors were solubilized in DMSO at a stock concentration of 50 mM. […] Eighty five μl of binding assay buffer (20 mM HEPES, pH-7.5, 50 mM KCl, 5 mM MgCl2, 20 mM sodium molybdate, 0.01% NP-40, 2 mM DTT, and 0.1 mg/ml BSA) was added to the wells of a 96 well black plate placed on ice. […] Next, 10 μl either binding assay buffer alone (control) or human full length Hsp90 protein diluted in the binding assay buffer was added to achieve a final concentration of 50 nM. The plates were incubated at 4° C. on a plate shaker for 24 h. Two μl of 50× GM-FITC (9 nM final) in DMSO was added to all wells and the plate was incubated at ambient temperature for 1 h with shaking. Fluorescence polarization readings were taken in duplicate at excitation and emission wavelengths of 480 nm and 500 nm respectively. Specific binding was calculated by subtracting polarization values in the presence of Hsp90 from those in the absence of Hsp90. To calculate percent inhibition the specific binding values obtained for GA-FITC in the presence of compound were compared to values for GA-FITC in the absence of compound (DMSO only).

[3] = Rat CNS exposure (plasma and CNS tissue concentration, LC-MS/MS); type: in vivo; details: 10 mg/kg
Description: Test subjects (Sprague-Dawley rats) were housed in sterile vivarium with controlled temperature, humidity and 12-hour light-dark cycle (7:00 lights-on and 19:00 lights-off). Following procurement, rats were acclimated to the vivarium facility for 7 days prior to study day-1 with ad libitum access to both diet and water. Bedding was changed twice weekly. […] On study day-1 rats were administered vehicle or Hsp90 inhibitor formulation. Following administrations of test article formulation, blood and CNS tissue was collected at 6.5 h post-dosed by a necropsy procedure. In detail, CNS tissue was isolated from the Vehicle and dose groups, divided into 2 mid-sagittal sections, placed in tarred 1 mL micro-centrifuge tubes, weighed and immediately frozen on dry ice. Blood was isolated by a cardiac puncture procedure from the Vehicle and Hsp90 inhibitor dose groups. From these samples, plasma was isolated in plasma separator tubes containing ethylenediaminetetraacetic acid as the anticoagulant. HSP90 inhibitor concentrations in plasma and CNS tissue were determined using LC-MS/MS based methods following a 60% acetonitrile extraction.

[4] = Table 1, 50 nM Hsp90, 9 nM GM-FITC, read-out: Biochemical Potency IC50
[5] = Table II, binding affinities ranked by potency
[6] = Table II, binding affinities ranked by potency, read-out: IC50

Compound | binding maximum (Bmax) (human full length Hsp90 [1]) | Kd (human full length Hsp90 [1]; 160 nM to 0.3125 nM probe) | IC50 (human full length Hsp90 [2]; [4]) | Ki (human full length Hsp90 [2]; [5]) | IC50 (human full length Hsp90 [2]; [6]) | inhibition at 10 µM (human full length Hsp90 [2]) | partitioning CNS versus plasma [3]
CO[C@H]1/C=C\C=C(/C)C(=O)NC2=CC(=O)C(NCCCCCCNC(=S)Nc3ccc(-c4c5ccc(=O)cc-5oc5cc(O)ccc45)c(C(=O)O)c3)=C(C[C@@H](C)C[C@H](OC)[C@H](O)[C@@H](C)/C=C(\C)[C@@H]1OC(N)=O)C2=O [GA-FITC] | 188 nM | 3.1 nM |  |  |  |  | 
CCN(Cc1ncc(C)c(OC)c1C)c1cc(Cl)nc(N)n1 [SBI-0640612, 6-Chloro-N4-ethyl-N4-((4-methoxy-3,5-dimethylpyridin-2-yl)methyl)pyrimidine-2,4-diamine] |  |  | 1140 nM | 285 nM | 1140 nM |  | 
Cc1cn(-c2cc(F)c(C(N)=O)c(N[C@H]3CCOC3)c2)c2c1C(=O)CC(C)(C)C2 [SNX-0723, reference compound] |  |  |  |  |  |  | selectively partitions into the CNS compartment compared to plasma
Nc1nc(Cl)cc(NCc2ccc(Oc3ccccc3)cc2)n1 [SBI-0638967] |  |  |  | > 2500 nM | > 10000 nM | 10% | 
COc1c(C)cnc(CN(c2cc(Cl)nc(N)n2)C(C)C)c1C [SBI-0639352, 6-Chloro-N4-isopropyl-N4-((4-methoxy-3,5-dimethylpyridin-2-yl)methyl)pyrimidine-2,4-diamine] |  |  | ≥ 32000 nM | > 8000 nM | > 32000 nM |  | 
COc1cccc(CNc2cc(Cl)nc(N)n2)c1 [SBI-0630160] |  |  |  | > 2500 nM | > 10000 nM | 13% | 
CCOc1ccc(-c2ccc(CNc3cc(Cl)nc(N)n3)cc2)cc1 [SBI-0638969] |  |  |  | > 2500 nM | > 10000 nM | 3% | 
COc1ccc(CNc2ccnc(N)n2)cc1OC [SBI-0634912] |  |  | > 250000 nM | > 2500 nM | > 10000 nM |  | 
COc1c(C)cnc(CN(C(=O)CC(C)(C)C)c2cc(Cl)nc(N)n2)c1C [SBI-0639901, N-(2-amino-6-chloropyrimidin-4-yl)-N-((4-methoxy-3,5-dimethylpyridin-2-yl)methyl)-3,3-dimethylbutanamide] |  |  | 30000 nM | 7500 nM | 30000 nM |  | 

Continued by falling Ki (human full length Hsp90 [2]; [5]), values first:

binding maximum (Bmax) (human full length Hsp90 [1]) | Kd (human full length Hsp90 [1]; 160 nM to 0.3125 nM probe) | IC50 (human full length Hsp90 [2]; [4]) | Ki (human full length Hsp90 [2]; [5]) | IC50 (human full length Hsp90 [2]; [6]) | inhibition at 10 µM (human full length Hsp90 [2]) | Compound | partitioning CNS versus plasma [3]
 |  | 368 nM | 92 nM | 368 nM |  | COc1c(C)cnc(CN(CCc2ccc3c(c2)OCO3)c2cc(Cl)nc(N)n2)c1C [SBI-0640607, N4-(2-(Benzo[d][1,3]dioxol-5-yl)ethyl)-6-chloro-N4-((4-methoxy-3,5-dimethylpyridin-2-yl)methyl)pyrimidine-2,4-diamine] | 
 |  | 350 nM | 88 nM | 350 nM |  | 6-Chloro-N4-((4-methoxy-3,5-dimethylpyridin-2-yl)methyl)-N4-(4-methoxyphenethyl)pyrimidine-2,4-diamine [SBI-0640605] | 
 |  | 194 nM | 49 nM | 194 nM |  | Cc1cnc(CN(CCc2ccc(Cl)cc2)c2cc(Cl)nc(N)n2)c(C)c1Cl [SBI-0640610, 6-Chloro-N4-((4-chloro-3,5-dimethylpyridin-2-yl)methyl)-N4-(4-chlorophenethyl)pyrimidine-2,4-diamine] | 
 |  | 97 nM | 24 nM | 97 nM |  | COc1c(C)cnc(CN(CCc2cccc(Br)c2)c2cc(Cl)nc(N)n2)c1C [SBI-0640613, N4-(3-Bromophenethyl)-6-chloro-N4-((4-methoxy-3,5-dimethylpyridin-2-yl)methyl)pyrimidine-2,4-diamine] | 
